Assay results from patent US20220324815A1, “2-PHENOXY-PYRIMIDINE DERIVATIVES AS HERBICIDAL COMPOUNDS” (SYNGENTA CROP PROTECTION AG, priority 2019, published 2022).

Assays:
Format in all cases: in vivo
Details in all cases: 250 g/ha unless otherwise stated, evaluated after 13 days, five-point scale
Lolium perenne (LOLPE) [1] = test: Test 1 glasshouse herbicide test, pre-emergence application (Table B2)
Method in brief: (§1)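 Pots sown in standard soil; sprayed 1 day (pre-emergence) or 8 days (post-emergence) after sowing at 250 g/ha unless stated, in acetone/water (50:50) with 0.5% Tween 20. Glasshouse 24/16 °C, 14 h light, 65% humidity; damage scored at 13 days on a 1–5 scale (5=81–100%, 1=0–20%).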

[2] = tested on: Amaranthus retoflexus (AMARE); test: as above
Method in brief: as §1

Setaria faberi (SETFA) [3] = test: as above
Method in brief: as §1

Solanum nigrum (SOLNI) [4] = test: as above
Method in brief: as §1

[5] = tested on: Echinochloa crus-galli (ECHCG); test: as above
Method in brief: as §1

[6] = tested on: Ipomoea hederacea (IPOHE); test: as above
Method in brief: as §1

Lolium perenne (LOLPE) [7] = test: Test 1 glasshouse herbicide test, post-emergence application (Table B1)
Method in brief: as §1

[8] = tested on: Amaranthus retoflexus (AMARE); test: as above
Method in brief: as §1

Setaria faberi (SETFA) [9] = test: as above
Method in brief: as §1

Solanum nigrum (SOLNI) [10] = test: as above
Method in brief: as §1

[11] = tested on: Echinochloa crus-galli (ECHCG); test: as above
Method in brief: as §1

[12] = tested on: Ipomoea hederacea (IPOHE); test: as above
Method in brief: as §1

Row | SMILES | % phytotoxicity LOLPE, pre-emergence application (Lolium perenne (LOLPE) [1]) | % phytotoxicity AMARE, pre-emergence application [2] | % phytotoxicity SETFA, pre-emergence application (Setaria faberi (SETFA) [3]) | % phytotoxicity SOLNI, pre-emergence application (Solanum nigrum (SOLNI) [4]) | % phytotoxicity ECHCG, pre-emergence application [5] | % phytotoxicity IPOHE, pre-emergence application [6] | % phytotoxicity LOLPE, post-emergence application (Lolium perenne (LOLPE) [7]) | % phytotoxicity AMARE, post-emergence application [8] | % phytotoxicity SETFA, post-emergence application (Setaria faberi (SETFA) [9]) | % phytotoxicity SOLNI, post-emergence application (Solanum nigrum (SOLNI) [10]) | % phytotoxicity ECHCG, post-emergence application [11] | % phytotoxicity IPOHE, post-emergence application [12]
1 | Clc1ccc(CSc2ccccc2Oc2ncc(Cl)cn2)cc1 [Compound A27] | 1 (1=0 to 20%) | 5 (5=81 to 100%) | 4 (4=61 to 80%) | 2 (2=21 to 40%) | 4 (4=61 to 80%) | 1 (1=0 to 20%) | 1 (1=0 to 20%) | 5 (5=81 to 100%) | 2 (2=21 to 40%) | 3 (3=41 to 60%) | 2 (2=21 to 40%) | 2 (2=21 to 40%)
2 | N#Cc1cccc(Oc2ncc(Cl)cn2)c1S(=O)(=O)CCC(F)(F)F [Compound A15] | 5 (5=81 to 100%) | 5 (5=81 to 100%) | 5 (5=81 to 100%) | 5 (5=81 to 100%) | 5 (5=81 to 100%) | 5 (5=81 to 100%) | 4 (4=61 to 80%) | 5 (5=81 to 100%) | 5 (5=81 to 100%) | 5 (5=81 to 100%) | 5 (5=81 to 100%) | 5 (5=81 to 100%)
3 | FC(F)(F)CCSc1c(Cl)cccc1Oc1ncc(Cl)cn1 [Compound A10, 5-chloro-2-[3-chloro-2-(3,3,3-trifluoropropylsulfanyl)phenoxy]pyrimidine] | 4 (4=61 to 80%) | 5 (5=81 to 100%) | 5 (5=81 to 100%) | 4 (4=61 to 80%) | 5 (5=81 to 100%) | 3 (3=41 to 60%) | 5 (5=81 to 100%) | 5 (5=81 to 100%) | 5 (5=81 to 100%) | 5 (5=81 to 100%) | 5 (5=81 to 100%) | 4 (4=61 to 80%)
4 | FC(F)(F)CCSc1ccccc1Oc1ncc(Cl)cn1 [Al] |  |  |  |  |  |  | 4 (4=61 to 80%) | 5 (5=81 to 100%) | 4 (4=61 to 80%) | 4 (4=61 to 80%) | 4 (4=61 to 80%) | 4 (4=61 to 80%)
5 | N#Cc1cccc(Oc2ncc(Cl)cn2)c1[S+]([O-])CCC(F)(F)F (stereo not drawn) [Compound A14] | 3 (3=41 to 60%) | 5 (5=81 to 100%) | 5 (5=81 to 100%) | 5 (5=81 to 100%) | 5 (5=81 to 100%) | 5 (5=81 to 100%) | 4 (4=61 to 80%) | 5 (5=81 to 100%) | 5 (5=81 to 100%) | 5 (5=81 to 100%) | 5 (5=81 to 100%) | 5 (5=81 to 100%)
6 | N#Cc1cccc(Oc2ncc(Cl)cn2)c1SCCC(F)(F)F [Compound A13] | 5 (5=81 to 100%) | 5 (5=81 to 100%) | 5 (5=81 to 100%) | 5 (5=81 to 100%) | 5 (5=81 to 100%) | 4 (4=61 to 80%) | 5 (5=81 to 100%) | 5 (5=81 to 100%) | 5 (5=81 to 100%) | 5 (5=81 to 100%) | 5 (5=81 to 100%) | 4 (4=61 to 80%)
7 | FC(F)(F)CCCSc1c(Cl)cccc1Oc1ncc(Cl)cn1 [Compound A25] | 5 (5=81 to 100%) | 5 (5=81 to 100%) | 5 (5=81 to 100%) | 5 (5=81 to 100%) | 5 (5=81 to 100%) | 1 (1=0 to 20%) | 5 (5=81 to 100%) | 5 (5=81 to 100%) | 5 (5=81 to 100%) | 5 (5=81 to 100%) | 5 (5=81 to 100%) | 3 (3=41 to 60%)
8 | FC(F)(F)CCSc1ccccc1Oc1ncc(Cl)cn1 [Compound A1] | 3 (3=41 to 60%) | 5 (5=81 to 100%) | 5 (5=81 to 100%) | 4 (4=61 to 80%) | 4 (4=61 to 80%) | 3 (3=41 to 60%) |  |  |  |  |  | 
9 | CC(C)CS(=O)(=O)c1ccccc1Oc1ncc(Cl)cn1 [Compound A76] |  | 5 (5=81 to 100%) | 4 (4=61 to 80%) |  | 3 (3=41 to 60%) | 2 (2=21 to 40%) |  | 1 (1=0 to 20%) | 1 (1=0 to 20%) |  | 2 (2=21 to 40%) | 2 (2=21 to 40%)
10 | CCCCS(=O)(=O)c1ccccc1Oc1ncc(Cl)cn1 [Compound A20] |  | 3 (3=41 to 60%) | 4 (4=61 to 80%) |  | 4 (4=61 to 80%) | 1 (1=0 to 20%) |  | 2 (2=21 to 40%) | 3 (3=41 to 60%) |  | 2 (2=21 to 40%) | 1 (1=0 to 20%)
11 | N#Cc1cccc(Oc2ncc(Cl)cn2)c1[S+]([O-])CCC(F)F (stereo not drawn) [Compound A98] |  | 5 (5=81 to 100%) | 5 (5=81 to 100%) |  | 5 (5=81 to 100%) | 5 (5=81 to 100%) |  | 5 (5=81 to 100%) | 4 (4=61 to 80%) |  | 4 (4=61 to 80%) | 4 (4=61 to 80%)
